# In US20160130278A1 (TAISHO PHARMACEUTICAL CO., LTD, priority 2013, published 2016):
# pIC50: −log10 of the molar value.
# Target: T1, human type 1 glycine transporter (GlyT1) (Homo sapiens, UniProt P48067)
# T1 construct: T98G cells (glioma cells) expressing human type 1 glycine transporter (GlyT1) were used
# T1 sequence (P48067 1-706): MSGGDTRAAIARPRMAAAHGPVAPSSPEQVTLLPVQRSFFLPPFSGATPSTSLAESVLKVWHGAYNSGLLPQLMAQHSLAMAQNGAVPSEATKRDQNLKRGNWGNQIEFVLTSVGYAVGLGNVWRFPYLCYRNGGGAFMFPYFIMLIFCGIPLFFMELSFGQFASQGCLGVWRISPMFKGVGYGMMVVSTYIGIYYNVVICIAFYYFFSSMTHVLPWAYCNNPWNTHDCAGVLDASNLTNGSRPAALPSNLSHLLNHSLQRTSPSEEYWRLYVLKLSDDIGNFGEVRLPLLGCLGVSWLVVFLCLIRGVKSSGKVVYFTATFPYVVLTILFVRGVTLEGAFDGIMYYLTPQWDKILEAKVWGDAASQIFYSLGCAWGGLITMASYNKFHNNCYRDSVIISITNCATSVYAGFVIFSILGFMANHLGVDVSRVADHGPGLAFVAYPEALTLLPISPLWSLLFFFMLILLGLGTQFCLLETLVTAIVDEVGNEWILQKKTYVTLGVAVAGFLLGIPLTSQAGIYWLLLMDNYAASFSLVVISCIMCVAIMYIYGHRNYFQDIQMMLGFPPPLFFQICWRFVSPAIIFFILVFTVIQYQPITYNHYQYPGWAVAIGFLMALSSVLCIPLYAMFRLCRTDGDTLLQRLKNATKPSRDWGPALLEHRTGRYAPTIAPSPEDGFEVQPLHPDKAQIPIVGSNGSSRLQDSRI
# Assay: Glycine uptake inhibition experiment ([3H]glycine uptake)
# Assay type: cell-based
# Settings: GlyT1
# Outline: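 T98G glioma cells expressing human GlyT1 were pretreated 10 min with compound in HEPES buffer pH 7.4 (0.2% BSA), then incubated with compound plus 250 nM final [3H]glycine for 15 min at room temperature. Intracellular radioactivity was counted after NaOH lysis; 10 μM ALX5407 defined non-specific uptake. IC50 came from 10^−9–10^−5 M curves.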
row,SMILES,pIC50
1,"O=C(N[C@@H](c1cccc(Br)c1)C1(O)CCCC1)c1cccc(C(F)(F)F)c1Cl [Compound 64, N-[(S)-(3-bromophenyl)(1-hydroxycyclopentyl)methyl]-2-chloro-3-(trifluoromethyl)benzamide]",7.12
2,"O=C(NC(c1cccc(F)c1)C1(O)CCCCC1)c1nccc(C(F)(F)F)c1Cl (centres unmarked) [Compound 63, 3-chloro-N-[(3-fluorophenyl)(1-hydroxycyclohexyl)methyl]-4-(trifluoromethyl)pyridine-2-carboxamide]",7.24
3,"O=C(NC(c1cccc(F)c1Cl)[C@]1(O)CC[C@@H](F)CC1)c1ccc(C(F)(F)F)cc1Cl (single isomer, unassigned) [Compound 298, 2-chloro-N-[(2-chloro-3-fluorophenyl)(cis-4-fluoro-1-hydroxycyclohexyl)methyl]-4-(trifluoromethyl)benzamide]",6.39
4,"CS(=O)(=O)c1ccc(C(F)(F)F)cc1C(=O)NC(c1cccc(F)c1Cl)[C@]1(O)CC[C@@H](F)CC1 (single isomer, unassigned) [Compound 372, N-[(2-chloro-3-fluorophenyl)(cis-4-fluoro-1-hydroxycyclohexyl)methyl]-2-(methylsulfonyl)-5-(trifluoromethyl)benzamide]",7.39
5,"O=C(NC(c1cccc(Cl)c1)C1(O)CCCCC1)c1nccc(C(F)(F)F)c1Cl (centres unmarked) [Compound 212, 3-chloro-N-[(3-chlorophenyl)(1-hydroxycyclohexyl)methyl]-4-(trifluoromethyl)pyridine-2-carboxamide]",7.08
6,"O=C(NC(c1ccccc1Cl)[C@]1(O)CC[C@@H](F)CC1)c1cc(C(F)(F)F)ncc1Cl (single isomer, unassigned) [Compound 366, 5-chloro-N-[(2-chlorophenyl)(cis-4-fluoro-1-hydroxycyclohexyl)methyl]-2-(trifluoromethyl)pyridine-4-carboxamide]",6.49
7,"O=C(NC(c1cccc(-n2cccn2)c1)C1(O)CCCC1)c1nccc(C(F)(F)F)c1Cl (single isomer, unassigned) [Compound 82, 3-chloro-N-{(1-hydroxycyclopentyl)[3-(1H-pyrazol-1-yl)phenyl]methyl}-4-(trifluoromethyl)pyridine-2-carboxamide]",7.05
8,"O=C(NC(c1cccc(-c2cccnc2)c1)C1(O)CCCCC1)c1nccc(C(F)(F)F)c1Cl (single isomer, unassigned) [Compound 27, 3-chloro-N-{(1-hydroxycyclohexyl)[3-(pyridin-3-yl)phenyl]methyl}-4-(trifluoromethyl)pyridine-2-carboxamide]",6.13
9,"O=C(NC(c1cccc(Cl)n1)[C@]1(O)CC[C@@H](F)CC1)c1cccc(C(F)(F)F)c1Cl (single isomer, unassigned) [Compound 327]",7.09
10,"O=C(NC(c1cccc(F)c1Cl)[C@]1(O)CC[C@@H](F)CC1)c1ccc(C(F)(F)F)nc1-n1nccn1 (single isomer, unassigned) [Compound 393, N-[(2-chloro-3-fluorophenyl)(cis-4-fluoro-1-hydroxycyclohexyl)methyl]-2-(2H-1,2,3-triazol-2-yl)-6-(trifluoromethyl)pyridine-3-carboxamide]",7.40
11,"O=C(NC(c1cccc(F)c1Cl)[C@]1(O)CC[C@@H](F)CC1)c1ncc(C(F)(F)F)cc1Cl (single isomer, unassigned) [Compound 320, 3-chloro-N-[(2-chloro-3-fluorophenyl)(cis-4-fluoro-1-hydroxycyclohexyl)methyl]-5-(trifluoromethyl)pyridine-2-carboxamide]",6.00
12,"O=C(NC(c1cc(Cl)ccn1)C1(O)CCC(F)(F)CC1)c1ccnc(C(F)(F)F)c1Cl (single isomer, unassigned) [Compound 346, 3-chloro-N-[(4-chloropyridin-2-yl)(4,4-difluoro-1-hydroxycyclohexyl)methyl]-2-(trifluoromethyl)pyridine-4-carboxamide]",6.44
13,"O=C1CCC(O)(C(NC(=O)c2nccc(C(F)(F)F)c2Cl)c2cccc(Cl)c2)C1 (centres unmarked) [Compound 130, 3-chloro-N-[(3-chlorophenyl)(1-hydroxy-3-oxocyclopentyl)methyl]-4-(trifluoromethyl)pyridine-2-carboxamide]",5.96
14,"O=C(NC(c1cccnc1Cl)[C@]1(O)CC[C@@H](F)CC1)c1nccc(C(F)F)c1Cl (single isomer, unassigned) [Compound 324, 3-chloro-N-[(2-chloropyridin-3-yl)(cis-4-fluoro-1-hydroxycyclohexyl)methyl]-4-(difluoromethyl)pyridine-2-carboxamide]",5.92
15,"CS(=O)(=O)c1cnc(C(F)(F)F)cc1C(=O)NC(c1cccc(F)c1Cl)[C@]1(O)CC[C@@H](F)CC1 (single isomer, unassigned) [Compound 386, N-[(2-chloro-3-fluorophenyl)(cis-4-fluoro-1-hydroxycyclohexyl)methyl]-5-(methylsulfonyl)-2-(trifluoromethyl)pyridine-4-carboxamide]",7.46
16,"Cn1nc(C(F)(F)F)cc1C(=O)NC(c1cccc(F)c1Cl)[C@]1(O)CC[C@@H](F)CC1 (single isomer, unassigned) [Compound 272, N-[(2-chloro-3-fluorophenyl)(cis-4-fluoro-1-hydroxycyclohexyl)methyl]-1-methyl-3-(trifluoromethyl)-1H-pyrazole-5-carboxamide]",5.60

# Next, values leading:
row,pIC50,SMILES
1,6.28,"CCn1cc(-c2cccc(C(NC(=O)c3cccc(Cl)c3Cl)C3(O)CCC(F)(F)CC3)c2)cn1 (single isomer, unassigned) [Compound 144, 2,3-dichloro-N-{(4,4-difluoro-1-hydroxycyclohexyl)[3-(1-ethyl-1H-pyrazol-4-yl)phenyl]methyl}benzamide]"
2,5.46,"CC(C)n1cc(-c2cccc(C(NC(=O)c3nccc(C(F)(F)F)c3Cl)C3(O)CCC(F)(F)CC3)c2)cn1 (single isomer, unassigned) [Compound 133, 3-chloro-N-[(4,4-difluoro-1-hydroxycyclohexyl){3-[1-(propan-2-yl)-1H-pyrazol-4-yl]phenyl}methyl]-4-(trifluoromethyl)pyridine-2-carboxamide]"
3,5.57,"O=C(NC(c1ccc(Cl)nc1)C1(O)CCC(F)(F)CC1)c1nccc(C(F)(F)F)c1Cl (single isomer, unassigned) [Compound 278, 3-chloro-N-[(6-chloropyridin-3-yl)(4,4-difluoro-1-hydroxycyclohexyl)methyl]-4-(trifluoromethyl)pyridine-2-carboxamide]"
4,5.92,"CCn1cc(-c2cccc(C(NC(=O)c3cccc(F)c3Cl)C3(O)CCC(F)(F)CC3)c2)cn1 (centres unmarked) [Compound 209, 2-chloro-N-{(4,4-difluoro-1-hydroxycyclohexyl)[3-(1-ethyl-1H-pyrazol-4-yl)phenyl]methyl}-3-fluorobenzamide]"
5,6.57,"O=C(NC(c1cc(Cl)ccn1)C1(O)CCC(F)(F)CC1)c1nccc(C(F)(F)F)c1Cl (single isomer, unassigned) [Compound 345, 3-chloro-N-[(4-chloropyridin-2-yl)(4,4-difluoro-1-hydroxycyclohexyl)methyl]-4-(trifluoromethyl)pyridine-2-carboxamide]"
6,6.54,"CCn1cc(-c2cccc(C(NC(=O)c3cccc4ccccc34)C3(O)CCC(F)(F)CC3)c2)cn1 (single isomer, unassigned) [Compound 196, N-{(4,4-difluoro-1-hydroxycyclohexyl)[3-(1-ethyl-1H-pyrazol-4-yl)phenyl]methyl}naphthalene-1-carboxamide]"
7,6.96,"O=C(NC(c1ccccc1Cl)C1(O)CCC(F)(F)CC1)c1nccc(C(F)(F)F)c1Cl (single isomer, unassigned) [Compound 147, 3-chloro-N-[(2-chlorophenyl)(4,4-difluoro-1-hydroxycyclohexyl)methyl]-4-(trifluoromethyl)pyridine-2-carboxamide]"
8,6.42,"O=C(NC(c1cccc(Cl)n1)C1(O)CCC(F)(F)CC1)c1ccnc(C(F)(F)F)c1Cl (single isomer, unassigned) [Compound 347, 3-chloro-N-[(6-chloropyridin-2-yl)(4,4-difluoro-1-hydroxycyclohexyl)methyl]-2-(trifluoromethyl)pyridine-4-carboxamide]"
9,6.72,"CCn1cc(-c2cccc(C(NC(=O)c3c(Cl)ccc(C(F)(F)F)c3Cl)C3(O)CCC(F)(F)CC3)c2)cn1 (single isomer, unassigned) [Compound 222, 2,6-dichloro-N-{(4,4-difluoro-1-hydroxycyclohexyl)[3-(1-ethyl-1H-pyrazol-4-yl)phenyl]methyl}-3-(trifluoromethyl)benzamide]"

# Same assay, conditions: human GlyT1
row,SMILES,pIC50
1,"CS(=O)(=O)c1ncc(C(F)(F)F)cc1C(=O)NC(c1ccccc1Cl)C1(O)CCC(F)(F)CC1 (single isomer, unassigned) [Compound 404, N-[(2-chlorophenyl)(4,4-difluoro-1-hydroxycyclohexyl)methyl]-2-(methylsulfonyl)-5-(trifluoromethyl)pyridine-3-carboxamide]",6.77
